Like-named read-outs stand apart in the source and are kept apart here.
Legend:
rat mGlu3 = rat mGlu3 (Rattus norvegicus (Rat), UniProt P31422); test: mGlu3 Ca2+ flux assay; type: cell-based; settings: for IC50: read-out: rat mGlu3 IC50; for remaining activity at 30 µM: amplitude of response at 30 μM test compound as % of maximal response to glutamate, read-out: rat mGlu3 Glu max (%)
Experimental: (§1) The cells were grown overnight at 37° C. in the presence of 5% CO2. […] Dye was removed, 20 μL of assay buffer was added, and the plate was incubated for 10 minutes at room temperature. Ca^2+ flux was measured using the Functional Drug Screening System (FDSS7000, Hamamatsu, Japan). […] All test compounds were dissolved and diluted to a concentration of 10 mM in 100% DMSO. […] Calcium fluorescence measures were recorded as fold over basal fluorescence; raw data was then normalized to the maximal response to glutamate. […] The raw data file containing all time points was used as the data source in the analysis template. This was saved by the FDSS as a tab-delimited text file. Data were normalized using a static ratio function (F/F0) for each measurement of the total 360 values per well divided by each well's initial value. […] This is sufficient time to capture the peak amplitude of the cellular calcium response. […] EC50 values for test compounds were generated by fitting the normalized values versus the log of the test compound concentration (in mol/L) using a 4 parameter logistic equation where none of the parameters were fixed. Each of the three values collected at each concentration of test compound were weighted evenly.

rat mGlu5 = rat mGlu5 (Rattus norvegicus (Rat), UniProt P31424); test: mGlu5 Ca2+ flux assay; type: cell-based; settings: for Emax at 30 µM: read-out: rat mGlu5 Glu max (%); for Fold selectivity (mGlu3 vs. mGlu5): ratio of rat mGlu5 EC50 or IC50 to rat mGlu3 IC50
Sequence of rat mGlu5 (P31424 21-1203): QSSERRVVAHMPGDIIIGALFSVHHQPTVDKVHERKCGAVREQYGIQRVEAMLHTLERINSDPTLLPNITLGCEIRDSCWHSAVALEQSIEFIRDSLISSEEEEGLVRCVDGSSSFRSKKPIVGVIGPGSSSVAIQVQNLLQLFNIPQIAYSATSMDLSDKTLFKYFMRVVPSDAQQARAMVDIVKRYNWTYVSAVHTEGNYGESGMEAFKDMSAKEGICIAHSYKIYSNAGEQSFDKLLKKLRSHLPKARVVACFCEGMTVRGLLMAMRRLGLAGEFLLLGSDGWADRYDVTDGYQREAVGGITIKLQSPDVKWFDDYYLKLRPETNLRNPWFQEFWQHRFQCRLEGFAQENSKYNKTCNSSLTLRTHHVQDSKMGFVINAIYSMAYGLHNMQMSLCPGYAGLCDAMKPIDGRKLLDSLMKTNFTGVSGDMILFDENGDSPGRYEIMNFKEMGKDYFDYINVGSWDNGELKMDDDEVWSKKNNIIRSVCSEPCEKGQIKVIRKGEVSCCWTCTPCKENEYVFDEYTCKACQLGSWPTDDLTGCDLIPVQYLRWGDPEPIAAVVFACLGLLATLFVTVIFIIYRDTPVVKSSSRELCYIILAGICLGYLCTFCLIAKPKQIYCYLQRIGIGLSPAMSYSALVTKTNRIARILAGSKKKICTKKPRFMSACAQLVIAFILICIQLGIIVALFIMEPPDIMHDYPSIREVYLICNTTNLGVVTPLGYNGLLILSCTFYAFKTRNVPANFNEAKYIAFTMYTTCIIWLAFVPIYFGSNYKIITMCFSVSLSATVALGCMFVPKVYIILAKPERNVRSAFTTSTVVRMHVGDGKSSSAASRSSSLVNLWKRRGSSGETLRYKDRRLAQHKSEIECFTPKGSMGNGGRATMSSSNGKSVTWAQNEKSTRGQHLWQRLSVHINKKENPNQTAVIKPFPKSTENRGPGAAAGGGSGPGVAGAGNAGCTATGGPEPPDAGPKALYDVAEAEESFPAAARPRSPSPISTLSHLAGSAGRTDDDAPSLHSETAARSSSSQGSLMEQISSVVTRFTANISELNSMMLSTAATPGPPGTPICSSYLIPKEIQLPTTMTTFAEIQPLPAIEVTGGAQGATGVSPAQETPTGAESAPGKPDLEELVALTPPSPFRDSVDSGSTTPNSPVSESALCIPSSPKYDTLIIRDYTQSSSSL
Experimental: as §1, with “for 5” for “for 10”

[1] = NAM potency, decrease of glutamate EC80 response, >30,000 = no measurable activity, >10,000 = no plateau
[2] = PAM, amplitude of response at 30 μM test compound as % of maximal response to glutamate
[3] = read-out: rat mGlu5 EC50 or IC50

Sequence of rat mGlu3 (P31422 23-879): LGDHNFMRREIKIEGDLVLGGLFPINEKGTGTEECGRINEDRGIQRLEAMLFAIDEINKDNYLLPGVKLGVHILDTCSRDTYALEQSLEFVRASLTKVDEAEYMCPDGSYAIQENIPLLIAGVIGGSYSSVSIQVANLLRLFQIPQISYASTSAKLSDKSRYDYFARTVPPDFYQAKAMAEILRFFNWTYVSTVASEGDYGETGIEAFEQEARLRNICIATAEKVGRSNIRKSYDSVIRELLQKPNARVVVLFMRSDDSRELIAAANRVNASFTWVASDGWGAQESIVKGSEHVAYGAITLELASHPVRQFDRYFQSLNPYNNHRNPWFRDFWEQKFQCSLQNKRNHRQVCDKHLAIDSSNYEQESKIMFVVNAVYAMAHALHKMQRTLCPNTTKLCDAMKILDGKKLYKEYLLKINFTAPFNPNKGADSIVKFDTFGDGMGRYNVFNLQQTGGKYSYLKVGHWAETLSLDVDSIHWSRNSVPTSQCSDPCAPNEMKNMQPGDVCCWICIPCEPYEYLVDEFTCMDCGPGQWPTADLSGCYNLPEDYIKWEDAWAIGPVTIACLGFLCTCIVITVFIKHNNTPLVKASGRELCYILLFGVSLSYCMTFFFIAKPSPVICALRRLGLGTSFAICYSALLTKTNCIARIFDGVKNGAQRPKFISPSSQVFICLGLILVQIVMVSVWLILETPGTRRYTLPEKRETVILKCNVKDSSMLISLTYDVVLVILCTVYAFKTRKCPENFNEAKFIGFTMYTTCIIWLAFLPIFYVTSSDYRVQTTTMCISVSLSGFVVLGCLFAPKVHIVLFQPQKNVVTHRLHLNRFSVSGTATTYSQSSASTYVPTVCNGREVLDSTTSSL

IC50 (rat mGlu3) | SMILES | IC50 (rat mGlu3; [1]) | remaining activity at 30 µM (rat mGlu3) | Emax at 30 µM (rat mGlu5; [2]) | Fold selectivity (mGlu3 vs. mGlu5) (rat mGlu5) | EC50 (rat mGlu5; [3]) | IC50 (rat mGlu5; compound noted as NAM or partial antagonist (PAnt) at mGlu5, glutamate EC80, read-out: rat mGlu5 EC50 or IC50) | Emax at 30 µM (rat mGlu5; compound noted as NAM or partial antagonist (PAnt) at mGlu5, response at 30 μM as % of maximal glutamate response)
– | Cc1ccccc1NCc1cc2n(n1)[C@@H](C)CN(c1ccc(F)cc1)C2=O [Compound 45, (S)-5-(4-fluorophenyl)-7-methyl-2-((o-tolylamino)methyl)-6,7-dihydropyrazolo[1,5-a]pyrazin-4(5H)-one] | 3340 nM | 1.32% | 37.1% | >2.9 | > 10000 nM | – | –
1210 nM | C[C@@H]1CN(c2ccc(F)cc2)C(=O)c2cc(CNc3cccc(F)c3)nn21 [Compound 46, (R)-5-(4-fluorophenyl)-2-(((3-fluorophenyl)amino)methyl)-7-methyl-6,7-dihydropyrazolo[1,5-a]pyrazin-4(5H)-one] | – | 0.58% | 24.6% | >8.2 | > 10000 nM | – | –
1840 nM | C[C@H]1CN(c2ccc(F)cc2)C(=O)c2cc(CNc3cccc(F)c3)nn21 [Compound 47, (S)-5-(4-fluorophenyl)-2-(((3-fluorophenyl)amino)methyl)-7-methyl-6,7-dihydropyrazolo[1,5-a]pyrazin-4(5H)-one] | – | 1.77% | 78.3% | 0.58 | 1070 nM | – | –
1650 nM | C[C@@H]1CN(c2ccc(F)cc2)C(=O)c2cc(CNc3cccc(Cl)c3)nn21 [Compound 48, (R)-2-(((3-chlorophenyl)amino)methyl)-5-(4-fluorophenyl)-7-methyl-6,7-dihydropyrazolo[1,5-a]pyrazin-4(5H)-one] | – | 1.63% | 88.8% | >6.0 | > 10000 nM | – | –
1330 nM | C[C@H]1CN(c2ccc(F)cc2)C(=O)c2cc(CNc3cccc(Cl)c3)nn21 [Compound 49, (S)-2-(((3-chlorophenyl)amino)methyl)-5-(4-fluorophenyl)-7-methyl-6,7-dihydropyrazolo[1,5-a]pyrazin-4(5H)-one] | – | -0.54% | 76.5% | 4.45 | 5920 nM | – | –
– | Cc1cccc(NCc2cc3n(n2)[C@H](C)CN(c2ccc(F)cc2)C3=O)c1 [Compound 50, (R)-5-(4-fluorophenyl)-7-methyl-2-((m-tolylamino)methyl)-6,7-dihydropyrazolo[1,5-a]pyrazin-4(5H)-one] | 3050 nM | 0.09% | – | >9.8 | > 30000 nM | – | –
– | Cc1cccc(NCc2cc3n(n2)[C@@H](C)CN(c2ccc(F)cc2)C3=O)c1 [Compound 51, (S)-5-(4-fluorophenyl)-7-methyl-2-((m-tolylamino)methyl)-6,7-dihydropyrazolo[1,5-a]pyrazin-4(5H)-one] | 3010 nM | 3.21% | 86.2% | 2.53 | 7610 nM | – | –
– | COc1cccc(NCc2cc3n(n2)[C@H](C)CN(c2ccc(F)cc2)C3=O)c1 [Compound 52, (R)-5-(4-fluorophenyl)-2-(((3-methoxyphenyl)amino)methyl)-7-methyl-6,7-dihydropyrazolo[1,5-a]pyrazin-4(5H)-one] | 2720 nM | 4.06% | – | >11 | > 30000 nM | – | –
– | COc1cccc(NCc2cc3n(n2)[C@@H](C)CN(c2ccc(F)cc2)C3=O)c1 [Compound 53, (S)-5-(4-fluorophenyl)-2-(((3-methoxyphenyl)amino)methyl)-7-methyl-6,7-dihydropyrazolo[1,5-a]pyrazin-4(5H)-one] | 10000 nM | 8.62% | – | >3.0 | > 30000 nM | – | –
– | C[C@@H]1CN(c2ccc(F)cc2)C(=O)c2cc(CNc3cccc(OC(F)F)c3)nn21 [Compound 54, (R)-2-(((3-(difluoromethoxy)phenyl)amino)methyl)-5-(4-fluorophenyl)-7-methyl-6,7-dihydropyrazolo[1,5-a]pyrazin-4(5H)-one] | 2040 nM | 3.56% | – | >4.9 | – | > 10000 nM | 36%
– | C[C@H]1CN(c2ccc(F)cc2)C(=O)c2cc(CNc3cccc(OC(F)F)c3)nn21 [Compound 55, (S)-2-(((3-(difluoromethoxy)phenyl)amino)methyl)-5-(4-fluorophenyl)-7-methyl-6,7-dihydropyrazolo[1,5-a]pyrazin-4(5H)-one] | 1670 nM | 1.85% | 28.8% | >5.9 | > 10000 nM | – | –
– | C[C@@H]1CN(c2ccc(F)cc2)C(=O)c2cc(CNc3ccc(F)cc3)nn21 [Compound 56, (R)-5-(4-fluorophenyl)-2-(((4-fluorophenyl)amino)methyl)-7-methyl-6,7-dihydropyrazolo[1,5-a]pyrazin-4(5H)-one] | 1160 nM | 2.97% | – | >25 | > 30000 nM | – | –
– | C[C@H]1CN(c2ccc(F)cc2)C(=O)c2cc(CNc3ccc(F)cc3)nn21 [Compound 57, (S)-5-(4-fluorophenyl)-2-(((4-fluorophenyl)amino)methyl)-7-methyl-6,7-dihydropyrazolo[1,5-a]pyrazin-4(5H)-one] | 2320 nM | 0.96% | 56.7% | 2.38 | 5530 nM | – | –
– | Cc1ccc(NCc2cc3n(n2)[C@H](C)CN(c2ccc(F)cc2)C3=O)cc1 [Compound 58, (R)-5-(4-fluorophenyl)-7-methyl-2-((p-tolylamino)methyl)-6,7-dihydropyrazolo[1,5-a]pyrazin-4(5H)-one] | 1830 nM | 1.27% | – | >16 | > 30000 nM | – | –
– | Cc1ccc(NCc2cc3n(n2)[C@@H](C)CN(c2ccc(F)cc2)C3=O)cc1 [Compound 59, (S)-5-(4-fluorophenyl)-7-methyl-2-((p-tolylamino)methyl)-6,7-dihydropyrazolo[1,5-a]pyrazin-4(5H)-one] | 1740 nM | 3.14% | 48.9% | >5.7 | > 10000 nM | – | –
– | C[C@@H]1CN(c2ccc(F)cc2)C(=O)c2cc(CNc3ccc(Cl)cc3)nn21 [Compound 60, (R)-2-(((4-chlorophenyl)amino)methyl)-5-(4-fluorophenyl)-7-methyl-6,7-dihydropyrazolo[1,5-a]pyrazin-4(5H)-one] | 1250 nM | 0.56% | 31.5% | >8.0 | > 10000 nM | – | –
– | C[C@H]1CN(c2ccc(F)cc2)C(=O)c2cc(CNc3ccc(Cl)cc3)nn21 [Compound 61, (S)-2-(((4-chlorophenyl)amino)methyl)-5-(4-fluorophenyl)-7-methyl-6,7-dihydropyrazolo[1,5-a]pyrazin-4(5H)-one] | 1310 nM | 2.22% | 80.3% | 4.69 | 6150 nM | – | –
– | COc1ccc(NCc2cc3n(n2)[C@H](C)CN(c2ccc(F)cc2)C3=O)cc1 [Compound 62, (R)-5-(4-fluorophenyl)-2-(((4-methoxyphenyl)amino)methyl)-7-methyl-6,7-dihydropyrazolo[1,5-a]pyrazin-4(5H)-one] | 2990 nM | 0.79% | – | >10 | > 30000 nM | – | –
